Data: doi:10.1101/801928v2 (biorxiv, 2019)

Target: T1, HmtS (Streptomyces himastatinicus, UniProt G0LWB2)
T1 sequence (G0LWB2 2-397): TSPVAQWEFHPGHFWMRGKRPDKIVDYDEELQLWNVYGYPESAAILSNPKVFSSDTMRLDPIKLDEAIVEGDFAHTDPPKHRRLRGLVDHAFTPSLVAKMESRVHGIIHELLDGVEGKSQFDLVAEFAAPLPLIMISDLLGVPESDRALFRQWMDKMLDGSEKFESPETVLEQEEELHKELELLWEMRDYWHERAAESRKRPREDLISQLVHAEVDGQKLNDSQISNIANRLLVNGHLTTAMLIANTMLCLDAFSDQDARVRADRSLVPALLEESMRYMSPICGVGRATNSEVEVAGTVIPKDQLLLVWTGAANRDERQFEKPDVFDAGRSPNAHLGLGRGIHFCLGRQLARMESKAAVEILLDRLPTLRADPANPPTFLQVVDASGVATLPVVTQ
Experiment: microscale thermophoresis, NT647-labelled enzyme
Type: binding

Kd [µM] | Compound
43 | Cc1cc2nc3c(=O)[nH]c(=O)nc-3n(C[C@H](O)[C@H](O)[C@H](O)COP(=O)(O)OP(=O)(O)OC[C@H]3O[C@@H](n4cnc5c(N)ncnc54)[C@H](O)[C@@H]3O)c2cc1C [FAD]
40 | Cc1cc2nc3c(=O)[nH]c(=O)nc-3n(C[C@H](O)[C@H](O)[C@H](O)COP(=O)(O)O)c2cc1C [FMN]
83 | NC(=O)C1=CN([C@@H]2O[C@H](COP(=O)(O)OP(=O)(O)OC[C@H]3O[C@@H](n4cnc5c(N)ncnc54)[C@H](OP(=O)(O)O)[C@@H]3O)[C@@H](O)[C@H]2O)C=CC1 [NADPH]
1.9 | Cc1cc2nc3c(=O)[nH]c(=O)nc-3n(C[C@H](O)[C@H](O)[C@H](O)CO)c2cc1C [riboflavin]
